What was measured:
[1] = system: Cholesterinesterase (Cholesterinesterhydrolase EC 3.1.1.13); test: Cholesterol esterase colour test according to Example 2 (photometric release of resorufin); type: biochemical; details: λ = 571 nm, 25°C, 0,1 M Kalium-Phosphat-Puffer pH 6,8
Procedure: 2 mg Cholesterin-glutarsäureresorufinester werden in 0,5 ml Dioxan und 0,5 ml Thesit® gelöst.
Zur Messung werden 850 µl 0,1 M Kalium-Phosphat-Puffer pH 6,8 und 50 µl der oben beschriebenen Substratlösung in einer Küvette gut durchgemischt. Nach Zugabe von 100 µl Probe (Enzymlösung) wird ΔE/min photometrisch bei λ = 571 nm bestimmt (Temperatur = 25°C).
Bei Auswertung über einen Standard bekannter Cholesterinesteraseaktivität wird die Cholesterinesteraseaktivität der Probe wie folgt berechnet [formula] Eine Berechnung der Cholesterinesteraseaktivität der Probe ist auch nach folgender Formel möglich: [formula] Vges : Gesamtvolumen des Testansatzes [cm³] VProbe : Volumen der Probe [cm³] ε : Extinktionskoeefizient des Chromogens bei 571 nm d : Schichtdicke der Küvette [cm] ΔE/min : Extinktionsänderung pro Minute bei 571 nm
Bei den genannten Reaktionsbedingungen beträgt der Extinktionskoeffizient ε = 60,00·cm² ·µmol⁻¹.
(§1) Zum Vergleich wurde der Cholesterinesterase-Test mit Cholesterinoleat als Substrat durchgeführt (Bergmeyer, Methods of Enzymatic Analysis, 3th.Ed., Vol.II, S. 168) und mit dem Farbtest gemäß Beispiel 2 verglichen und der Korrelationskoeffizient ermittelt. Die Ergebnisse zeigen Tabelle I und Figur 1. TABELLE I

[2] = system: Cholesterinesterase (Cholesterinesterhydrolase EC 3.1.1.13); test: Cholesterol esterase test with cholesterol oleate as substrate (Bergmeyer UV method, comparison); type: biochemical
Text: Bekannt ist die photometrische Bestimmung im UV. Freigesetztes Cholesterin wird mittels Cholesterinoxidase zu Cholestenon oxidiert, das anhand der Absorptionszunahme bei λ = 240 nm gemessen werden kann (Bergmeyer, Methods of Enzymatic Analysis, 3th.Ed., Vol.II, S.168). Alternativ wird das bei dieser Oxidation gebildete Wasserstoff peroxid durch eine Farb-Reaktion bestimmt (Stähler, Med.Lab. 30, 29 (77)). Diese Methoden sind umständlich und ebenfalls störanfällig.
as §1

ΔE/min ([2]; Konz. 1,0 mg/ml)	ΔE/min ([2]; Konz. 1,3 mg/ml)	ΔE/min ([2]; Konz. 2,0 mg/ml)	ΔE/min ([2]; Konz. 5,0 mg/ml)	ΔE/min ([2]; Konz. 6,6 mg/ml)	ΔE/min ([2]; Konz. 10,0 mg/ml)	Compound	ΔE/min ([1]; Konz. 1,0 mg/ml)	ΔE/min ([1]; Konz. 1,3 mg/ml)	ΔE/min ([1]; Konz. 2,0 mg/ml)	ΔE/min ([1]; Konz. 5,0 mg/ml)	ΔE/min ([1]; Konz. 10,0 mg/ml)
–	–	–	–	–	–	CC(C)CCC[C@@H](C)[C@H]1CC[C@H]2[C@@H]3CC=C4C[C@@H](OC(=O)CCCC(=O)Oc5ccc6nc7ccc(=O)cc-7oc6c5)CC[C@]4(C)[C@H]3CC[C@]12C [Cholesterin-Glutarsäure-Resorufinester, Cholesterin-glutarsäure-resorufinester]	0,009	0,013	0,015	0,033	0,071
0,007	0,011	0,015	0,036	0,045	0,072	CCCCCCCC/C=C\CCCCCCCC(=O)O[C@H]1CC[C@@]2(C)C(=CC[C@H]3[C@@H]4CC[C@H]([C@H](C)CCCC(C)C)[C@@]4(C)CC[C@@H]32)C1 [Cholesterin-Oleat, Cholesterinoleat]	–	–	–	–	–

Reference: EP0328029A2, “Cholesterol-esterase colour substrate” (BOEHRINGER MANNHEIM GMBH, priority 1988, dated 1989)
